Data published in patent publication US4464396A, “4-[N-(Hydroxybenzyl)aminomethyl]cyclohexane-1-carboxylic acid” (Kureha Kagaku Kogyo Kabushiki Kaisha, priority 1981, dated 1984).

Tests used:
[1] = system: Rat's polynuclear leukocyte migration; assay: Inhibitory effect on polynuclear leukocyte migration (Boyden method); assay type: cell-based; settings: rat polynuclear leukocytes, read-out: Concentration of 50% inhibition of polynuclear leukocyte migration IC50
Source text: (1) Examination for inhibitory effect on polynuclear leukocyte migration:
Rat's polynuclear leukocyte migration was examined by the Boyden method.

[2] = Acute toxicity, peroral administration of aqueous solution to mice; settings: mouse, in vivo, po, female JCL-ICR mice 5 to 6 weeks old
Source text: (2) Examination for acute toxicity:
Acute toxicity was examined by administering perorally an aqueous solution of each Specimen to female JCL-ICR mice 5 to 6 weeks after their birth.

Row | SMILES | IC50 [1] [µM] | LD50 [2] [mg/kg]
1 | COc1ccc2c(c1)c(CC(=O)O)c(C)n2C(=O)c1ccc(Cl)cc1 [III] | 240 | 
2 | O=C(O)[C@H]1CC[C@H](CNCc2ccccc2O)CC1 [I] | 340 | > 3000
3 | O=C(O)[C@H]1CC[C@H](CNCc2ccc(O)c(O)c2)CC1 [II] | 32 | > 3000
